{
  "source": "the OligoGym collection",
  "note": "Oligonucleotides are given in HELM: sugar(base)linkage, 5' to 3'; d 2'-deoxyribose, r ribose, m 2'-O-methylribose, p phosphate. ss, as = sense and antisense strand; also: test concentration or dose not given here",
  "data": [
    {"molecular_target": "UBE2K", "test": "reporter assay of Huesken 2005", "conditions": "siRNA", "units": {"normalised inhibition (eCFP-eYFP dual reporter)": "%"}, "values": [
      {"substance": "RNA1{r(A)p.r(G)p.r(G)p.r(A)p.r(C)p.r(C)p.r(U)p.r(C)p.r(C)p.r(A)p.r(G)p.r(A)p.r(C)p.r(A)p.r(C)p.r(A)p.r(C)p.r(C)p.r(A)p.d(T)p.d(T)}|RNA2{r(U)p.r(G)p.r(G)p.r(U)p.r(G)p.r(U)p.r(G)p.r(U)p.r(C)p.r(U)p.r(G)p.r(G)p.r(A)p.r(G)p.r(G)p.r(U)p.r(C)p.r(C)p.r(U)p.d(G)p.d(C)}$$$RNA1{StrandType:ss}|RNA2{StrandType:as}$", "normalised inhibition (eCFP-eYFP dual reporter)": 74.6},
      {"substance": "RNA1{r(A)p.r(G)p.r(G)p.r(A)p.r(G)p.r(A)p.r(A)p.r(A)p.r(U)p.r(A)p.r(G)p.r(C)p.r(A)p.r(G)p.r(G)p.r(A)p.r(C)p.r(C)p.r(U)p.d(T)p.d(T)}|RNA2{r(A)p.r(G)p.r(G)p.r(U)p.r(C)p.r(C)p.r(U)p.r(G)p.r(C)p.r(U)p.r(A)p.r(U)p.r(U)p.r(U)p.r(C)p.r(U)p.r(C)p.r(C)p.r(U)p.d(C)p.d(T)}$$$RNA1{StrandType:ss}|RNA2{StrandType:as}$", "normalised inhibition (eCFP-eYFP dual reporter)": 69.4},
      {"substance": "RNA1{r(A)p.r(G)p.r(G)p.r(A)p.r(G)p.r(G)p.r(A)p.r(A)p.r(G)p.r(A)p.r(U)p.r(A)p.r(C)p.r(C)p.r(A)p.r(A)p.r(C)p.r(U)p.r(A)p.d(T)p.d(T)}|RNA2{r(U)p.r(A)p.r(G)p.r(U)p.r(U)p.r(G)p.r(G)p.r(U)p.r(A)p.r(U)p.r(C)p.r(U)p.r(U)p.r(C)p.r(C)p.r(U)p.r(C)p.r(C)p.r(U)p.d(T)p.d(C)}$$$RNA1{StrandType:ss}|RNA2{StrandType:as}$", "normalised inhibition (eCFP-eYFP dual reporter)": 75.4},
      {"substance": "RNA1{r(A)p.r(G)p.r(G)p.r(A)p.r(U)p.r(G)p.r(C)p.r(U)p.r(G)p.r(U)p.r(A)p.r(G)p.r(U)p.r(A)p.r(G)p.r(C)p.r(A)p.r(A)p.r(A)p.d(T)p.d(T)}|RNA2{r(U)p.r(U)p.r(U)p.r(G)p.r(C)p.r(U)p.r(A)p.r(C)p.r(U)p.r(A)p.r(C)p.r(A)p.r(G)p.r(C)p.r(A)p.r(U)p.r(C)p.r(C)p.r(U)p.d(G)p.d(T)}$$$RNA1{StrandType:ss}|RNA2{StrandType:as}$", "normalised inhibition (eCFP-eYFP dual reporter)": 92.1},
      {"substance": "RNA1{r(A)p.r(G)p.r(G)p.r(G)p.r(G)p.r(C)p.r(U)p.r(A)p.r(U)p.r(U)p.r(U)p.r(G)p.r(U)p.r(U)p.r(U)p.r(G)p.r(G)p.r(A)p.r(U)p.d(T)p.d(T)}|RNA2{r(A)p.r(U)p.r(C)p.r(C)p.r(A)p.r(A)p.r(A)p.r(C)p.r(A)p.r(A)p.r(A)p.r(U)p.r(A)p.r(G)p.r(C)p.r(C)p.r(C)p.r(C)p.r(U)p.d(G)p.d(T)}$$$RNA1{StrandType:ss}|RNA2{StrandType:as}$", "normalised inhibition (eCFP-eYFP dual reporter)": 71},
      {"substance": "RNA1{r(A)p.r(G)p.r(U)p.r(A)p.r(G)p.r(A)p.r(U)p.r(C)p.r(U)p.r(U)p.r(G)p.r(U)p.r(A)p.r(G)p.r(A)p.r(U)p.r(G)p.r(A)p.r(G)p.d(T)p.d(T)}|RNA2{r(C)p.r(U)p.r(C)p.r(A)p.r(U)p.r(C)p.r(U)p.r(A)p.r(C)p.r(A)p.r(A)p.r(G)p.r(A)p.r(U)p.r(C)p.r(U)p.r(A)p.r(C)p.r(U)p.d(T)p.d(T)}$$$RNA1{StrandType:ss}|RNA2{StrandType:as}$", "normalised inhibition (eCFP-eYFP dual reporter)": 88.2},
      {"substance": "RNA1{r(A)p.r(U)p.r(A)p.r(C)p.r(C)p.r(A)p.r(A)p.r(C)p.r(U)p.r(A)p.r(G)p.r(A)p.r(G)p.r(A)p.r(U)p.r(A)p.r(A)p.r(A)p.r(A)p.d(T)p.d(T)}|RNA2{r(U)p.r(U)p.r(U)p.r(U)p.r(A)p.r(U)p.r(C)p.r(U)p.r(C)p.r(U)p.r(A)p.r(G)p.r(U)p.r(U)p.r(G)p.r(G)p.r(U)p.r(A)p.r(U)p.d(C)p.d(T)}$$$RNA1{StrandType:ss}|RNA2{StrandType:as}$", "normalised inhibition (eCFP-eYFP dual reporter)": 78.5},
      {"substance": "RNA1{r(A)p.r(U)p.r(A)p.r(C)p.r(C)p.r(A)p.r(G)p.r(A)p.r(A)p.r(A)p.r(C)p.r(A)p.r(U)p.r(A)p.r(C)p.r(C)p.r(C)p.r(A)p.r(U)p.d(T)p.d(T)}|RNA2{r(A)p.r(U)p.r(G)p.r(G)p.r(G)p.r(U)p.r(A)p.r(U)p.r(G)p.r(U)p.r(U)p.r(U)p.r(C)p.r(U)p.r(G)p.r(G)p.r(U)p.r(A)p.r(U)p.d(T)p.d(T)}$$$RNA1{StrandType:ss}|RNA2{StrandType:as}$", "normalised inhibition (eCFP-eYFP dual reporter)": 76.3},
      {"substance": "RNA1{r(A)p.r(U)p.r(A)p.r(G)p.r(C)p.r(A)p.r(G)p.r(G)p.r(A)p.r(C)p.r(C)p.r(U)p.r(C)p.r(C)p.r(A)p.r(G)p.r(A)p.r(C)p.r(A)p.d(T)p.d(T)}|RNA2{r(U)p.r(G)p.r(U)p.r(C)p.r(U)p.r(G)p.r(G)p.r(A)p.r(G)p.r(G)p.r(U)p.r(C)p.r(C)p.r(U)p.r(G)p.r(C)p.r(U)p.r(A)p.r(U)p.d(T)p.d(T)}$$$RNA1{StrandType:ss}|RNA2{StrandType:as}$", "normalised inhibition (eCFP-eYFP dual reporter)": 69.8},
      {"substance": "RNA1{r(A)p.r(U)p.r(C)p.r(A)p.r(A)p.r(U)p.r(G)p.r(G)p.r(G)p.r(C)p.r(A)p.r(G)p.r(C)p.r(U)p.r(G)p.r(C)p.r(A)p.r(A)p.r(U)p.d(T)p.d(T)}|RNA2{r(A)p.r(U)p.r(U)p.r(G)p.r(C)p.r(A)p.r(G)p.r(C)p.r(U)p.r(G)p.r(C)p.r(C)p.r(C)p.r(A)p.r(U)p.r(U)p.r(G)p.r(A)p.r(U)p.d(C)p.d(T)}$$$RNA1{StrandType:ss}|RNA2{StrandType:as}$", "normalised inhibition (eCFP-eYFP dual reporter)": 48.4},
      {"substance": "RNA1{r(A)p.r(U)p.r(C)p.r(C)p.r(U)p.r(A)p.r(A)p.r(U)p.r(A)p.r(U)p.r(U)p.r(A)p.r(G)p.r(U)p.r(U)p.r(C)p.r(C)p.r(G)p.r(U)p.d(T)p.d(T)}|RNA2{r(A)p.r(C)p.r(G)p.r(G)p.r(A)p.r(A)p.r(C)p.r(U)p.r(A)p.r(A)p.r(U)p.r(A)p.r(U)p.r(U)p.r(A)p.r(G)p.r(G)p.r(A)p.r(U)p.d(G)p.d(C)}$$$RNA1{StrandType:ss}|RNA2{StrandType:as}$", "normalised inhibition (eCFP-eYFP dual reporter)": 53.2},
      {"substance": "RNA1{r(A)p.r(U)p.r(C)p.r(U)p.r(U)p.r(G)p.r(U)p.r(A)p.r(G)p.r(A)p.r(U)p.r(G)p.r(A)p.r(G)p.r(A)p.r(A)p.r(U)p.r(U)p.r(U)p.d(T)p.d(T)}|RNA2{r(A)p.r(A)p.r(A)p.r(U)p.r(U)p.r(C)p.r(U)p.r(C)p.r(A)p.r(U)p.r(C)p.r(U)p.r(A)p.r(C)p.r(A)p.r(A)p.r(G)p.r(A)p.r(U)p.d(C)p.d(T)}$$$RNA1{StrandType:ss}|RNA2{StrandType:as}$", "normalised inhibition (eCFP-eYFP dual reporter)": 81.3},
      {"substance": "RNA1{r(A)p.r(U)p.r(G)p.r(A)p.r(C)p.r(U)p.r(C)p.r(U)p.r(C)p.r(C)p.r(G)p.r(C)p.r(A)p.r(C)p.r(G)p.r(G)p.r(U)p.r(A)p.r(U)p.d(T)p.d(T)}|RNA2{r(A)p.r(U)p.r(A)p.r(C)p.r(C)p.r(G)p.r(U)p.r(G)p.r(C)p.r(G)p.r(G)p.r(A)p.r(G)p.r(A)p.r(G)p.r(U)p.r(C)p.r(A)p.r(U)p.d(T)p.d(G)}$$$RNA1{StrandType:ss}|RNA2{StrandType:as}$", "normalised inhibition (eCFP-eYFP dual reporter)": 85.7},
      {"substance": "RNA1{r(A)p.r(U)p.r(G)p.r(U)p.r(U)p.r(C)p.r(A)p.r(A)p.r(A)p.r(C)p.r(A)p.r(G)p.r(A)p.r(C)p.r(A)p.r(G)p.r(C)p.r(U)p.r(C)p.d(T)p.d(T)}|RNA2{r(G)p.r(A)p.r(G)p.r(C)p.r(U)p.r(G)p.r(U)p.r(C)p.r(U)p.r(G)p.r(U)p.r(U)p.r(U)p.r(G)p.r(A)p.r(A)p.r(C)p.r(A)p.r(U)p.d(T)p.d(T)}$$$RNA1{StrandType:ss}|RNA2{StrandType:as}$", "normalised inhibition (eCFP-eYFP dual reporter)": 64.6},
      {"substance": "RNA1{r(A)p.r(U)p.r(U)p.r(A)p.r(A)p.r(A)p.r(G)p.r(U)p.r(A)p.r(G)p.r(A)p.r(U)p.r(C)p.r(U)p.r(U)p.r(G)p.r(U)p.r(A)p.r(G)p.d(T)p.d(T)}|RNA2{r(C)p.r(U)p.r(A)p.r(C)p.r(A)p.r(A)p.r(G)p.r(A)p.r(U)p.r(C)p.r(U)p.r(A)p.r(C)p.r(U)p.r(U)p.r(U)p.r(A)p.r(A)p.r(U)p.d(T)p.d(T)}$$$RNA1{StrandType:ss}|RNA2{StrandType:as}$", "normalised inhibition (eCFP-eYFP dual reporter)": 45.8},
      {"substance": "RNA1{r(A)p.r(U)p.r(U)p.r(G)p.r(G)p.r(C)p.r(A)p.r(G)p.r(C)p.r(U)p.r(G)p.r(C)p.r(A)p.r(G)p.r(A)p.r(G)p.r(C)p.r(C)p.r(A)p.d(T)p.d(T)}|RNA2{r(U)p.r(G)p.r(G)p.r(C)p.r(U)p.r(C)p.r(U)p.r(G)p.r(C)p.r(A)p.r(G)p.r(C)p.r(U)p.r(G)p.r(C)p.r(C)p.r(A)p.r(A)p.r(U)p.d(A)p.d(G)}$$$RNA1{StrandType:ss}|RNA2{StrandType:as}$", "normalised inhibition (eCFP-eYFP dual reporter)": 85},
      {"substance": "RNA1{r(A)p.r(U)p.r(U)p.r(G)p.r(U)p.r(C)p.r(A)p.r(U)p.r(U)p.r(G)p.r(C)p.r(A)p.r(A)p.r(G)p.r(C)p.r(A)p.r(C)p.r(U)p.r(A)p.d(T)p.d(T)}|RNA2{r(U)p.r(A)p.r(G)p.r(U)p.r(G)p.r(C)p.r(U)p.r(U)p.r(G)p.r(C)p.r(A)p.r(A)p.r(U)p.r(G)p.r(A)p.r(C)p.r(A)p.r(A)p.r(U)p.d(A)p.d(A)}$$$RNA1{StrandType:ss}|RNA2{StrandType:as}$", "normalised inhibition (eCFP-eYFP dual reporter)": 85.4},
      {"substance": "RNA1{r(C)p.r(A)p.r(C)p.r(C)p.r(A)p.r(U)p.r(A)p.r(U)p.r(G)p.r(A)p.r(A)p.r(G)p.r(G)p.r(A)p.r(G)p.r(G)p.r(A)p.r(A)p.r(G)p.d(T)p.d(T)}|RNA2{r(C)p.r(U)p.r(U)p.r(C)p.r(C)p.r(U)p.r(C)p.r(C)p.r(U)p.r(U)p.r(C)p.r(A)p.r(U)p.r(A)p.r(U)p.r(G)p.r(G)p.r(U)p.r(G)p.d(T)p.d(G)}$$$RNA1{StrandType:ss}|RNA2{StrandType:as}$", "normalised inhibition (eCFP-eYFP dual reporter)": 69.5},
      {"substance": "RNA1{r(C)p.r(A)p.r(G)p.r(A)p.r(C)p.r(A)p.r(C)p.r(A)p.r(C)p.r(C)p.r(A)p.r(U)p.r(A)p.r(U)p.r(G)p.r(A)p.r(A)p.r(G)p.r(G)p.d(T)p.d(T)}|RNA2{r(C)p.r(C)p.r(U)p.r(U)p.r(C)p.r(A)p.r(U)p.r(A)p.r(U)p.r(G)p.r(G)p.r(U)p.r(G)p.r(U)p.r(G)p.r(U)p.r(C)p.r(U)p.r(G)p.d(G)p.d(A)}$$$RNA1{StrandType:ss}|RNA2{StrandType:as}$", "normalised inhibition (eCFP-eYFP dual reporter)": 72.8},
      {"substance": "RNA1{r(C)p.r(A)p.r(G)p.r(A)p.r(G)p.r(C)p.r(C)p.r(A)p.r(G)p.r(A)p.r(U)p.r(G)p.r(A)p.r(U)p.r(C)p.r(C)p.r(A)p.r(C)p.r(A)p.d(T)p.d(T)}|RNA2{r(U)p.r(G)p.r(U)p.r(G)p.r(G)p.r(A)p.r(U)p.r(C)p.r(A)p.r(U)p.r(C)p.r(U)p.r(G)p.r(G)p.r(C)p.r(U)p.r(C)p.r(U)p.r(G)p.d(C)p.d(A)}$$$RNA1{StrandType:ss}|RNA2{StrandType:as}$", "normalised inhibition (eCFP-eYFP dual reporter)": 82.5}
    ]}
  ]
}
